Results from US20050208549A1, “Testing endosymbiont cellular organelles and compounds identifiable therewith” (priority 2000, published 2005).

How the values were obtained:
[1] = test system: peripheral blood mononuclear cells (PBMCs); assay: NASBA ratio of mitochondrial RNA to chromosome-encoded RNA in cultured PBMCs; type: cell-based, human (healthy blood donor)
Protocol: In Table 1, the primers and probes used in the examples are summarized. Standard NASBA nucleic acid amplification reactions were performed in a 20 μl reaction volume and contained: 40 mM Tris-pH 8.5, 70 mM KCl, 12 mM MgCl2, 5 mM dithiothreitol, 1 mM dNTPs (each), 2 mM rNTPs (each), 0.2 μM primer (each), 0.05 μM molecular beacon, 375 mM sorbitol, 0.105 μg/μl bovine serum albumin, 6.4 units AMV RT, 32 units T7 RNA polymerase, 0.08 units RNAse H and input nucleic acid. The complete mixture, except the enzymes, sorbitol and/or bovine serum albumin was, prior to adding the enzyme mixture, heated to 65° C. for two minutes in order to denature any secondary structure in the RNA and to allow the primers to anneal. After cooling the mixture to 41° C., the enzymes were added. The amplification took place at 41° C. for 90 minutes in a fluorimeter (CytoFluor 2000) and the fluorescent signal was measured every minute (using the filter set 530/25 nm and 485/30 nm). For amplification of DNA target sequences, the 65° C. denaturation step was replaced with a 95° C. denaturation step for two to five minutes.
To achieve quantification, a dilution series of target sequences for a particular primer set was amplified and the time points at which the reactions became positive (the time to positivity, TTP) were plotted against the input amounts of nucleic acid. This way a calibration curve was created that could be used to read TTP values of reactions with unknown amounts of input and deduce the input amount.
Cells (fibroblasts and PBMCs) were cultured under standard conditions in standard media known to persons skilled in the art with the addition of drugs or putative toxic or stimulating compounds as defined in the examples. […] A small aliquot of the isolated nucleic acid was analyzed on an agarose gel and the remainder stored at −80° C. until further analysis. […]

PBMC of patients = assay: Mitochondrial DNA content per PBMC of HIV-1 infected patients on antiviral therapy (duplex NASBA); type: in vivo, human (HIV-1 infected patients); details: for Mitochondrial DNA content in PBMC (per cell), Median / % decrease in mitochondrial DNA content of PBMC: patients
Protocol: Different ratios of mitochondrial and chromosomal DNA targets in plasmids were analyzed in this example: 2×10^3 U1a DNA/8×10^3 Mt DNA, 2×10^3 U1a DNA/2×10^4 MtDNA, 2×10^3 U1a DNA/4×10^4 Mt DNA, 2×10^3 U1a DNA/10^5 Mt DNA, 2×10^3 U1a DNA/2×10^5 Mt DNA, 2×10^3 U1a DNA/4×10^5 Mt DNA, and 2×10^3 U1a DNA/8×10^5 Mt DNA molecules were included. A reaction mix was prepared similar to that of Example 12, except that primers and beacons differed in order to amplify chromosomal and mitochondrial DNA in one tube. The reaction mix (duplex-mix) contained two sets of primers and beacons: SnrpD P1 and SnrpD2 P2 (first primer set, each 0.2 μM), and MtD P1—2 and MtD P2—2 (second primer set, each 0.3 μM) with beacons SnrpD mb—2 (FAM-labeled) and MtD mb—3 (ROX-labeled) (each 0.04 μM). See Table 1 for primer and, probe sequences. Restriction enzyme digestion, amplification, and detection were performed as in Example 12. Filter sets of the fluorimeter (CytoFluor 2000 or EasyQ analyzer) were adapted to simultaneously measure the FAM and the ROX-label (485/20 and 530/25 for FAM; 590/20 and 645/40 for ROX). In a duplex reaction with two competing amplifications, the ratio of the slope of the curves of fluorescence in time is proportional to the ratio of the amount of molecules of each amplified species. The relation between the ratio of the slopes of FAM and ROX signal is linear to the ratio of mitochondrial DNA and chromosomal DNA in the input.
Forty-eight HIV-1 infected patients were randomized for antiviral therapy with either AZT, AZT+ddI, or AZT+ddC. Blood was drawn at week 0, 4, 24, and 48 after the start of therapy. The blood was used to prepare peripheral blood mononuclear cells (PBMC) by Ficoll-Isopaque purification. PBMC were viably frozen in medium plus 5% DMSO and stored in liquid nitrogen until use.
Nucleic acids were extracted from 10^5 PBMC using the Boom method. Nucleic acids equivalent of 1,000 PBMC were used as input for the one-tube real-time duplex-NASBA that measures both mitochondrial and chromosomal DNA as described in Example 17. The result of this assay is expressed as the mitochondrial DNA content per cell (i.e., PBMC) of the patient sample.
The mtDNA content of the PBMC of the patients at start of therapy was compared to the mtDNA content at week 4, 24, and 48 and analyzed for statistically significant changes (see Table 3 and FIGS. 20 and 21).

Fibroblasts = assay: Lactate-pyruvate ratio in fibroblasts cultured with ddC; type: cell-based
Protocol: Fibroblasts were cultured in the presence of the anti-retroviral drug ddC. (30 μM) for four weeks. After that period, the cell culture continued in the presence, but also in the absence, of ddC for another six weeks. During this period of culture, part of the cells were harvested and analyzed for the ratio of lactate-pyruvate using standard methods known by persons skilled in the art.

| SMILES | change in ratio of mitochondrial RNA to chromosome-encoded RNA ([1]; culture period of five days, 6 μM and 60 μM) | Mitochondrial DNA content in PBMC (per cell), Median (PBMC of patients; week 0 (start of therapy)) | % decrease in mitochondrial DNA content of PBMC (PBMC of patients; week 4 compared to start of therapy) [%] | Mitochondrial DNA content in PBMC (per cell), Median (PBMC of patients; week 4 of therapy) | % decrease in mitochondrial DNA content of PBMC (PBMC of patients; week 24 compared to start of therapy) [%] | Mitochondrial DNA content in PBMC (per cell), Median (PBMC of patients; week 24 of therapy) | % decrease in mitochondrial DNA content of PBMC (PBMC of patients; week 48 compared to start of therapy) [%] | Mitochondrial DNA content in PBMC (per cell), Median (PBMC of patients; week 48 of therapy) | culture time after which a significant increase of lactate pyruvate ratio can be observed (Fibroblasts; ddC 30 μM) | lactate-pyruvate ratio in continued culture in the absence of ddC (Fibroblasts; ddC 30 μM for four weeks, then without ddC) | lactate pyruvate ratio in the presence of ddC (Fibroblasts; ddC 30 μM, FIG. 17) | lactate-pyruvate ratio during continued culture in the presence of ddC (Fibroblasts; ddC 30 μM, after week four, another six weeks) | decline in PBMCs of mitochondrial RNA per cell ([1]; five-day culture period, highest concentration of ddC used, FIG. 10) | change in the mitochondrial DNA content of patients' PBMC under therapy (PBMC of patients; human, in vivo) |
| --- | --- | --- | --- | --- | --- | --- | --- | --- | --- | --- | --- | --- | --- | --- |
| Cc1cn([C@H]2C[C@H](N=[N+]=[N-])[C@@H](CO)O2)c(=O)[nH]c1=O [AZT] | no measurable change | 196 | 11 | 157 | 1 | 182 | 5 | 155 |  |  |  |  |  |  |
| Nc1ccn([C@H]2CC[C@@H](CO)O2)c(=O)n1 [ddC] |  |  |  |  |  |  |  |  | four | drops to normal levels | increases | remains high | do not clearly show a decline | significant decline |
